From patent US10017527B2, “KLK4 inhibitors” (Universiteit Antwerpen, priority 2014, dated 2018) come the findings set out here.

Structures are written as SMILES.

Format in all cases: biochemical
One test addresses T1, KLK8 (human) (Homo sapiens, UniProt O60259).
T1 construct: purchased Viktor Magdolen, TUMunich (TUM), supplied by an academic laboratory
T1 sequence (O60259 33-260): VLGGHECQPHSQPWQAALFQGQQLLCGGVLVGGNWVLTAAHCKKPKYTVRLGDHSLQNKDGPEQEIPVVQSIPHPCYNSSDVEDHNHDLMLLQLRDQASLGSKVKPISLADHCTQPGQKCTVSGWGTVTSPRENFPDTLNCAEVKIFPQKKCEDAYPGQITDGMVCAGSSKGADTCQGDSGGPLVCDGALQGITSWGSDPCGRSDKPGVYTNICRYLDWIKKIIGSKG
Briefly: KLK8 inhibition, fluorogenic substrate Boc-Val-Pro-Arg-AMC. Conditions: Tris buffer pH 8; read-out: IC50 KLK8. From the text:
(§1) The IC50 values For KLK1, KLK2 and KLK8 were obtained in a similar way. For plasmin, tPA, thrombin, Fxa, HNE, Plasma kallikrein Chromogenic substrates were used (absorption: 405 nm). (KLK2, KLK4, KLK8 were supplied by Viktor Magdolen TUMunich (TUM)).

For the next test, the target named is T2, tPA (recombinant) (Homo sapiens, UniProt P00750).
T2 construct: purchased Nodia
T2 sequence (P00750 36-562, species assumed): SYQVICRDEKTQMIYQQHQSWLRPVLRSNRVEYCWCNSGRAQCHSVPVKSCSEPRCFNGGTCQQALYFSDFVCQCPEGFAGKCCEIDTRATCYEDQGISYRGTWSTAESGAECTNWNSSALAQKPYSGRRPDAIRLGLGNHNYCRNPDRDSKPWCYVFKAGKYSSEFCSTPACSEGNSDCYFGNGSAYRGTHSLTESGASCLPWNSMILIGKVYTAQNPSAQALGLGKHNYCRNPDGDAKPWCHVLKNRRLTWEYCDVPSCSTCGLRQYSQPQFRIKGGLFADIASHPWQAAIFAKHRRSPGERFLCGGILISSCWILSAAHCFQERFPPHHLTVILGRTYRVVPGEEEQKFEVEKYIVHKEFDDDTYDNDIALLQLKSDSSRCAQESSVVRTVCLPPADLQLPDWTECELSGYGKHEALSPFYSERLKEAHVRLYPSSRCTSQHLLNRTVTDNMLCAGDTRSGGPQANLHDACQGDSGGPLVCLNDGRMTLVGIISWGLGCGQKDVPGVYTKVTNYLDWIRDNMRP
Briefly: tPA inhibition, chromogenic substrate Biophen CS-05(88). Conditions: Tris buffer pH 8.3; read-out: IC50 tPA. The method in brief:
(§2)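 tPA, HNE: chromogenic read-out, A405 nm. KLK1/KLK2: run alike. Output as IC50.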

For another test, the target named is T3, Matriptase (Homo sapiens, UniProt Q9Y5Y6).
T3 sequence (Q9Y5Y6 1-855): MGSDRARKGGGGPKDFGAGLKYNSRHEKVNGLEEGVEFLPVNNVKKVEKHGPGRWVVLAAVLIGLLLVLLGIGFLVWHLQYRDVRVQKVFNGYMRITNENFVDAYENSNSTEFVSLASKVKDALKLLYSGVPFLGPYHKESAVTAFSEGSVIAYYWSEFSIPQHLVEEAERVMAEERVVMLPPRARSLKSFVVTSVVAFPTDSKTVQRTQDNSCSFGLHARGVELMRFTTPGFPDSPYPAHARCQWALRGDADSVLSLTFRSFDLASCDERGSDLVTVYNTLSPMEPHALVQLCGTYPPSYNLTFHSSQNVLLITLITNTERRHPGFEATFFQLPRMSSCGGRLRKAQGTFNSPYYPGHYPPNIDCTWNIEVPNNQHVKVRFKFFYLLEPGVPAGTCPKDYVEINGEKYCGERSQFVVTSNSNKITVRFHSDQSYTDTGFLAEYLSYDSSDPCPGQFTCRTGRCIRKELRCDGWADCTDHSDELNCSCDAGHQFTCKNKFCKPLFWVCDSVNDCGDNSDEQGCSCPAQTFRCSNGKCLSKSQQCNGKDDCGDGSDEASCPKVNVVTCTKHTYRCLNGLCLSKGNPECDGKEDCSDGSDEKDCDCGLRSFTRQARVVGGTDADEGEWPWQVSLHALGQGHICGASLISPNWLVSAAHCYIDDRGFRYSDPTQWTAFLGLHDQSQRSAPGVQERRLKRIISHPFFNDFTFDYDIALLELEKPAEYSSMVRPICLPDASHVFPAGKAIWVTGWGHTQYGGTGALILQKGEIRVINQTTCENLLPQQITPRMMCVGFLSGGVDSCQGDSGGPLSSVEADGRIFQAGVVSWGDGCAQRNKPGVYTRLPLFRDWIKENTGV
Briefly: Matriptase inhibition. Conditions: Matriptase; read-out: IC50 MAT.

The target of a further test is T4, Thrombine (human plasma) (Homo sapiens, UniProt P00734).
T4 construct: purchased Sigma-Aldrich; host or cells: human plasma
Briefly: Thrombin inhibition, chromogenic substrate Biophen CS-21(66). Conditions: Thrombin; Tris buffer pH 8.3; read-out: IC50 THR.

For the next test, the target named is T5, Plasmine (human plasma) (Homo sapiens, UniProt P00747).
T5 construct: purchased Sigma-Aldrich; host or cells: human plasma
T5 sequence (P00747 581-810 limits assumed): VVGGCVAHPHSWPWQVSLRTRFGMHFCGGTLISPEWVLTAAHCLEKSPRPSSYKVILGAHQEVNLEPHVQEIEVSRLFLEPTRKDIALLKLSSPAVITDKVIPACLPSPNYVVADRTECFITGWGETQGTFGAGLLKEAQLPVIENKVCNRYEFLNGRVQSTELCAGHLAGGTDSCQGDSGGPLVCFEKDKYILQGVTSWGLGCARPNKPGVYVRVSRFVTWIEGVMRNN
T5 sequence (P00747 98-580 partner limits assumed): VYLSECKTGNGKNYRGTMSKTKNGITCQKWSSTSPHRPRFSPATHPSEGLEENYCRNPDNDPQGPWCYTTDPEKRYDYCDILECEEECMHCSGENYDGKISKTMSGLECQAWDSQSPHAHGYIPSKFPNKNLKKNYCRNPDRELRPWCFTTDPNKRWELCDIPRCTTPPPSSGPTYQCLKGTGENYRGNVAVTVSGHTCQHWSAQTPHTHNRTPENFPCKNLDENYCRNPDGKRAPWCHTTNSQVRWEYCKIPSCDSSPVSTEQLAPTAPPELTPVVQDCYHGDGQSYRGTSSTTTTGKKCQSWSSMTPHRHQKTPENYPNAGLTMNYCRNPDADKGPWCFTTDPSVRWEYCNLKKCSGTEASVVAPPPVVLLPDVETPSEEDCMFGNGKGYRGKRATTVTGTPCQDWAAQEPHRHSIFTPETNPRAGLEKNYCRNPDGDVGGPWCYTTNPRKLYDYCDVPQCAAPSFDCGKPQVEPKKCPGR
Briefly: Plasmin inhibition, chromogenic substrate Biophen CS-21(66). Conditions: Plasmin; Tris buffer pH 7.4; read-out: IC50 PLM.
Text: as §1

A further test addresses T6, KLK4 (Homo sapiens, UniProt Q9Y5K2).
T6 construct: purchased Viktor Magdolen (TUM), supplied by an academic laboratory
Briefly: KLK4 enzymatic inhibition, fluorogenic substrate Boc-Val-Pro-Arg-AMC. Conditions: 15 min pre-incubation at 37° C., Tris buffer pH 8.3; read-out: IC50 KLK4.

The target in another test is T7, KLK1 (human) (Homo sapiens, UniProt P06870).
T7 construct: purchased Prospec
T7 sequence (P06870 25-262): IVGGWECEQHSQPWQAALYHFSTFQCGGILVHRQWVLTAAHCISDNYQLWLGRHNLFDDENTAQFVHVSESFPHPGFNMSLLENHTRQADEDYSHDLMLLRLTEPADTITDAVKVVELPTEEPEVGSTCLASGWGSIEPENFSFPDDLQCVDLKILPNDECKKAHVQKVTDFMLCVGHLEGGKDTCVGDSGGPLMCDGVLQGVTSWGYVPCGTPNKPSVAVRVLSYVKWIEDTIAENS
Briefly: KLK1 inhibition, fluorogenic substrate H-Pro-Phe-Arg-AMC. The following applies: Tris buffer pH 7.8; read-out: IC50 KLK1. An outline of the steps:
as §2

In a further test the target is AcHE (Homo sapiens, UniProt P22303). Briefly: AcHE inhibition. Conditions: read-out: IC50 AcHE.
AcHE, sequence (P22303 32-614): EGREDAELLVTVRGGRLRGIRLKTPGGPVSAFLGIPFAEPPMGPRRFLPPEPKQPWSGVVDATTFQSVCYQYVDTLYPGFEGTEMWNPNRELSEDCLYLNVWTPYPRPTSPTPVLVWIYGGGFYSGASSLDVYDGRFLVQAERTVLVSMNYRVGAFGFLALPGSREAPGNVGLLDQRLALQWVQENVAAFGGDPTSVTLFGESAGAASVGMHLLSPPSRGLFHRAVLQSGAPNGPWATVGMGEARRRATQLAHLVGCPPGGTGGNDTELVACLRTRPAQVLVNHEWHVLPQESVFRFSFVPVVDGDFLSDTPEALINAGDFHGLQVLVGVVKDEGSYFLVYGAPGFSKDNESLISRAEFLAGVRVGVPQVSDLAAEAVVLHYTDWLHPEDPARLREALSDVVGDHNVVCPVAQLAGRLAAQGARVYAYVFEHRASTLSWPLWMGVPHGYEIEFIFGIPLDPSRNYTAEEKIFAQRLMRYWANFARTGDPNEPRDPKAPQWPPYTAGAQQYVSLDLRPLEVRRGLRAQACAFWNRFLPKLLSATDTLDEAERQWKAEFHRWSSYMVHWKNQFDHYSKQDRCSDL
In the next test the target is T8, uPA (recombinant) (Homo sapiens, UniProt P00749).
T8 construct: purchased Nodia
In words: uPA inhibition, chromogenic substrate Biophen CS-61(44). Conditions: Tris buffer pH 8.8; read-out: IC50 uPA.

A further test addresses T9, PlasmaKLK (human plasma) (Homo sapiens, UniProt P03952).
T9 construct: purchased Sigma-Aldrich; host or cells: human plasma
In words: Plasma kallikrein inhibition, chromogenic substrate Biophen CS-31(02). The following applies: Plasma KLK; Tris buffer pH 7.8; read-out: IC50 pKLK.
Text: as §1

A further test concerns the target T10, FXa (Homo sapiens, UniProt P00742).
T10 construct: purchased Nodia
In words: FXa inhibition, chromogenic substrate Biophen CS-11(32). The following applies: Tris buffer pH 8.3; read-out: IC50 FXa.
Text: as §1

The next test has as its target T11, KLK2 (human) (Homo sapiens, UniProt P20151).
T11 construct: purchased Viktor Magdolen, TUMunich (TUM), supplied by an academic laboratory
Briefly: KLK2 inhibition, fluorogenic substrate H-Pro-Phe-Arg-AMC. The following applies: Tris buffer pH 8.3; read-out: IC50 KLK2. An outline of the steps: as §2

T9 sequence (P03952 391-638 limits assumed): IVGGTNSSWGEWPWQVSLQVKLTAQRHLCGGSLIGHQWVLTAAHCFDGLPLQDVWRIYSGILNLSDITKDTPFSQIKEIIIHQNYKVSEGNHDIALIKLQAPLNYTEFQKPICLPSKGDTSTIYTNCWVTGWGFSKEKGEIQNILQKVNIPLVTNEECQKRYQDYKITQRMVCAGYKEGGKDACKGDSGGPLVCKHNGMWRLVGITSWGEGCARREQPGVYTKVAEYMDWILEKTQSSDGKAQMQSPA
T9 sequence (P03952 20-390 partner limits assumed): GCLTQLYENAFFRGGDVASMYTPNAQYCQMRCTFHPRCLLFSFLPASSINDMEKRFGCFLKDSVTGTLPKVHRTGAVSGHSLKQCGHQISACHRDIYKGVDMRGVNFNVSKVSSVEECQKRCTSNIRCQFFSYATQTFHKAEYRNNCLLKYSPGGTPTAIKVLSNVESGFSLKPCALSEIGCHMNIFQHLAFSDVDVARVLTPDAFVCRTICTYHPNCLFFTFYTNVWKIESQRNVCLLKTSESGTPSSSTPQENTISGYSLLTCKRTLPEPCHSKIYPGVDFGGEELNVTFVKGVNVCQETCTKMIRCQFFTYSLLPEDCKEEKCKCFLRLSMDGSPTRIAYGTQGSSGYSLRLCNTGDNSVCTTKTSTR
T11 sequence (P20151 25-261): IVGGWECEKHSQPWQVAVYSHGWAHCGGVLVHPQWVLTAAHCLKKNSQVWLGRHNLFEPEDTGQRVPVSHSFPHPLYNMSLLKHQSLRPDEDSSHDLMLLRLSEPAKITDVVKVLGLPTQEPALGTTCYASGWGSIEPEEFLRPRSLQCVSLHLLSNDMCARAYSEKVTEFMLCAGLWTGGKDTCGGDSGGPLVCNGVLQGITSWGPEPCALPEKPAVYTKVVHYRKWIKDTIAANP
T6 sequence (Q9Y5K2 31-254): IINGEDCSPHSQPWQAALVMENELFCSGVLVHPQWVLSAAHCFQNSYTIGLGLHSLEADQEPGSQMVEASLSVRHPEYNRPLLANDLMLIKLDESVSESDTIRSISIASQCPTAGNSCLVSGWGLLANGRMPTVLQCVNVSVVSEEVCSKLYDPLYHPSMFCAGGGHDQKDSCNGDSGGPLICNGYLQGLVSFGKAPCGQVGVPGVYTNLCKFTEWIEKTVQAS
T10 sequence (P00742 235-488 limits assumed): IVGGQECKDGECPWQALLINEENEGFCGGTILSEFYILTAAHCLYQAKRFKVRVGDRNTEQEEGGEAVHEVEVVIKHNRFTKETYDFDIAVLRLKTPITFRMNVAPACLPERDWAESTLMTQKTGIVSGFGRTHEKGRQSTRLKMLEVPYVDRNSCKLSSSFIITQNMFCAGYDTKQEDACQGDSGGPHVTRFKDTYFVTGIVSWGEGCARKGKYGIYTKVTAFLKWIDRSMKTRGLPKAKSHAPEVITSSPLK
T10 sequence (P00742 41-179 partner limits assumed): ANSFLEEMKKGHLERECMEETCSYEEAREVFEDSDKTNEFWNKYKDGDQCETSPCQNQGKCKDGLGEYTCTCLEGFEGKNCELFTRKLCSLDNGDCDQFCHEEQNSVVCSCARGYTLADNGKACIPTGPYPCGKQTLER

Regarding `COCCOCCOC(=O)NC(c1ccc(NC(=N)N)cc1)P(=O)(Oc1ccccc1)Oc1ccccc1.O=C(O)C(F)(F)F` (stereo not drawn) [Compound 28, 2-(2-methoxyethoxy)ethyl((diphenoxyphosphoryl)(4-guanidinophenyl)methyl) carbamate 2,2,2-trifluoroacetate], the IC50 is 10 to 250 µM at KLK8 (human); more than 250 µM at tPA (recombinant); 2.5 to 10 µM on Matriptase; more than 250 µM at Thrombine (human plasma); 10 to 250 µM on Plasmine (human plasma); less than 0.1 µM at KLK4. Further, the IC50 on KLK1 (human) is 10 to 250 µM; on AcHE, 10 to 250 µM; at uPA (recombinant), 10 to 250 µM; on PlasmaKLK (human plasma), 10 to 250 µM; at FXa it was more than 250 µM; on KLK2 (human), 0.1 to 1 µM.

In the case of `N=C(N)Nc1ccc(C(NC(=O)OCCOc2ccccc2)P(=O)(Oc2ccccc2)Oc2ccccc2)cc1.O=C(O)C(F)(F)F` (stereo not drawn) [Compound 30, 2-phenoxyethyl((diphenoxyphosphoryl)(4-guanidinophenyl)methyl)carbamate 2,2,2-trifluoroacetate], the IC50 at KLK8 (human) was 10 to 250 µM; at tPA (recombinant) it was more than 250 µM; at Matriptase, 2.5 to 10 µM; at Thrombine (human plasma) it was more than 250 µM; on Plasmine (human plasma), 10 to 250 µM; on KLK4 it was less than 0.1 µM. The half-inhibitory concentration (IC50) is 2.5 to 10 µM on KLK1 (human); 10 to 250 µM on AcHE; 2.5 to 10 µM on uPA (recombinant); more than 250 µM on PlasmaKLK (human plasma); 10 to 250 µM on FXa; 0.1 to 1 µM on KLK2 (human).

By IC50 is commonly meant the concentration that inhibits the measured activity by half.
